Laboratory results taken from PubChem BioAssay (NCI).
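Abbreviation: GI50, concentration required for 50% inhibition of growth. At the TGI there is no net growth.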

Legend:
Experiment in all cases: inhibition of tumour cell growth, NCI panel, 384-well format
SW-620 colon = tested on: SW-620 colon
MALME-3M melanoma = tested on: MALME-3M melanoma
MOLT-4 leukemia = tested on: MOLT-4 leukemia
HCT-116 colon = tested on: HCT-116 colon
TK-10 renal = tested on: TK-10 renal
UACC-62 melanoma = tested on: UACC-62 melanoma
M14 melanoma = tested on: M14 melanoma
SK-MEL-28 melanoma = tested on: SK-MEL-28 melanoma
HOP-62 NSCLC = tested on: HOP-62 NSCLC
T-47D breast = tested on: T-47D breast
HOP-92 NSCLC = tested on: HOP-92 NSCLC
PC-3 prostate = tested on: PC-3 prostate
SN12C renal = tested on: SN12C renal
K-562 leukemia = tested on: K-562 leukemia
OVCAR-3 ovarian = tested on: OVCAR-3 ovarian
HS 578T breast = tested on: HS 578T breast
CAKI-1 renal = tested on: CAKI-1 renal
MDA-MB-468 breast = tested on: MDA-MB-468 breast
HCT-15 colon = tested on: HCT-15 colon
A498 renal = tested on: A498 renal
UO-31 renal = tested on: UO-31 renal
MDA-MB-231 breast = tested on: MDA-MB-231 breast
SF-295 CNS = tested on: SF-295 CNS
UACC-257 melanoma = tested on: UACC-257 melanoma
EKVX NSCLC = tested on: EKVX NSCLC
LOX IMVI melanoma = tested on: LOX IMVI melanoma
NCI-H522 lung = tested on: NCI-H522 lung
RXF 393 renal = tested on: RXF 393 renal
786-0 renal = tested on: 786-0 renal
HT29 colon = tested on: HT29 colon
NCI-H226 lung = tested on: NCI-H226 lung
ACHN renal = tested on: ACHN renal
IGROV1 ovarian = tested on: IGROV1 ovarian
NCI-H23 lung = tested on: NCI-H23 lung
NCI-H322M lung = tested on: NCI-H322M lung
SF-539 CNS = tested on: SF-539 CNS
OVCAR-5 ovarian = tested on: OVCAR-5 ovarian
MCF7 breast = tested on: MCF7 breast
SF-268 CNS = tested on: SF-268 CNS
A549 NSCLC = tested on: A549 NSCLC
SNB-19 CNS = tested on: SNB-19 CNS
SNB-75 CNS = tested on: SNB-75 CNS
CCRF-CEM leukemia = tested on: CCRF-CEM leukemia
MDA-MB-435 melanoma = tested on: MDA-MB-435 melanoma
NCI/ADR-RES ovarian = tested on: NCI/ADR-RES ovarian
RPMI-8226 leukemia = tested on: RPMI-8226 leukemia
U251 glioblastoma = tested on: U251 glioblastoma
KM12 colon = tested on: KM12 colon
OVCAR-8 ovarian = tested on: OVCAR-8 ovarian
SK-OV-3 ovarian = tested on: SK-OV-3 ovarian
BT-549 breast = tested on: BT-549 breast
HL-60(TB) leukemia = tested on: HL-60(TB) leukemia

S=c1nc[nH]c2nc[nH]c12
GI50 (SW-620 colon): 4.15 µM | GI50 (MALME-3M melanoma): 0.494 µM | TGI (MALME-3M melanoma): 3.14 µM | GI50 (MOLT-4 leukemia): 0.151 µM | TGI (MOLT-4 leukemia): 0.318 µM | GI50 (HCT-116 colon): 1.8 µM | GI50 (TK-10 renal): 0.437 µM | TGI (TK-10 renal): 2.19 µM | GI50 (UACC-62 melanoma): 0.876 µM | GI50 (M14 melanoma): 0.306 µM | GI50 (SK-MEL-28 melanoma): 15.4 µM | TGI (SK-MEL-28 melanoma): 99.6 µM | GI50 (HOP-62 NSCLC): 0.219 µM | TGI (HOP-62 NSCLC): 0.592 µM | GI50 (T-47D breast): 0.423 µM | GI50 (HOP-92 NSCLC): 0.301 µM | GI50 (PC-3 prostate): 2.4 µM | GI50 (SN12C renal): 2.43 µM | TGI (SN12C renal): 19.4 µM | GI50 (K-562 leukemia): 0.334 µM | TGI (K-562 leukemia): 0.95 µM | GI50 (OVCAR-3 ovarian): 0.168 µM | TGI (OVCAR-3 ovarian): 0.389 µM | GI50 (HS 578T breast): 0.473 µM | TGI (HS 578T breast): 3.38 µM | GI50 (CAKI-1 renal): 1.57 µM | TGI (CAKI-1 renal): 5.45 µM | GI50 (MDA-MB-468 breast): 0.15 µM | TGI (MDA-MB-468 breast): 0.416 µM | GI50 (HCT-15 colon): 4.73 µM | GI50 (A498 renal): 10.6 µM | TGI (A498 renal): 96.7 µM | GI50 (UO-31 renal): 1.86 µM | TGI (UO-31 renal): 5.23 µM | GI50 (MDA-MB-231 breast): 0.395 µM | TGI (MDA-MB-231 breast): 1.86 µM | GI50 (SF-295 CNS): 1.13 µM | TGI (SF-295 CNS): 3.71 µM | GI50 (UACC-257 melanoma): 2.04 µM | GI50 (EKVX NSCLC): 53.9 µM | GI50 (LOX IMVI melanoma): 0.206 µM | TGI (LOX IMVI melanoma): 0.481 µM | GI50 (NCI-H522 lung): 0.299 µM | TGI (NCI-H522 lung): 1.77 µM | GI50 (RXF 393 renal): 0.241 µM | TGI (RXF 393 renal): 1.16 µM | GI50 ([…]-0 renal): 0.468 µM | TGI (786-0 renal): 2.2 µM | GI50 (HT29 colon): 1.89 µM | GI50 (NCI-H226 lung): 0.294 µM | TGI (NCI-H226 lung): 11.9 µM | GI50 (ACHN renal): 1.83 µM | TGI (ACHN renal): 6.91 µM | GI50 (IGROV1 ovarian): 3.63 µM | GI50 (NCI-H23 lung): 0.576 µM | TGI (NCI-H23 lung): 5.86 µM | GI50 (NCI-H322M lung): 1.06 µM | TGI (NCI-H322M lung): 7.28 µM | GI50 (SF-539 CNS): 0.481 µM | TGI (SF-539 CNS): 2.91 µM | GI50 (OVCAR-5 ovarian): 1.25 µM | TGI (OVCAR-5 ovarian): 2.8 µM | GI50 (MCF7 breast): 0.272 µM | TGI (MCF7 breast): 10.2 µM | GI50 (SF-268 CNS): 1.11 µM | TGI (SF-268 CNS): 2.8 µM | GI50 (A549 NSCLC): 5.6 µM | TGI (A549 NSCLC): 57.1 µM | GI50 (SNB-19 CNS): 11.3 µM | TGI (SNB-19 CNS): 37 µM | GI50 (SNB-75 CNS): 0.217 µM | TGI (SNB-75 CNS): 5.13 µM | GI50 (CCRF-CEM leukemia): 1.42 µM | TGI (CCRF-CEM leukemia): 3 µM | GI50 (MDA-MB-435 melanoma): 0.729 µM | GI50 (NCI/ADR-RES ovarian): 2.06 µM | TGI (NCI/ADR-RES ovarian): 8.77 µM | GI50 (RPMI-8226 leukemia): 0.289 µM | TGI (RPMI-8226 leukemia): 1.28 µM | GI50 (U251 glioblastoma): 3.3 µM | GI50 (KM12 colon): 1.33 µM | GI50 (OVCAR-8 ovarian): 1.48 µM | TGI (OVCAR-8 ovarian): 5.93 µM | GI50 (SK-OV-3 ovarian): 0.569 µM | GI50 (BT-549 breast): 0.482 µM | TGI (BT-549 breast): 2.3 µM | GI50 (HL-60(TB) leukemia): 0.357 µM | TGI (HL-60(TB) leukemia): 1.84 µM
